Counter-ions that a name gives are not always drawn. Like-named read-outs stand apart in the source and are kept apart here.
Columns and labels:
hROMK (hKir1.1) = hROMK (hKir1.1) (Homo sapiens (Human), UniProt P48048); assay: Thallium Flux Assay (ROMK channel functional thallium flux, FLIPR-Tetra); type: cell-based
Kir1.1 (ROMK1) = Kir1.1 (ROMK1) (Homo sapiens (Human), UniProt P48048); assay: Electrophysiology Assay (whole cell voltage clamp, IonWorks Quattro); type: cell-based; conditions: block during voltage step to 0 mV
Outline: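 CHO cells stably expressing the channel, induced overnight with 1 mM sodium butyrate, were recorded in amphotericin-perforated patch mode. The test pulse was a 100 ms step to 0 mV from −70 mV, then a −70 to +70 mV ramp, applied before and after a 6 min compound incubation. Current amplitudes were compared.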

[1] = HEK293 cells stably expressing hROMK (hKir1.1), read-out: Thallium Flux IC50
[2] = Electrophysiology IC50, Chinese hamster ovary cells stably expressing Kir1.1
[3] = Chinese hamster ovary cells stably expressing Kir1.1, read-out: Electrophysiology IC50

Chain of Kir1.1 (ROMK1) (P48048 whole entry, species assumed): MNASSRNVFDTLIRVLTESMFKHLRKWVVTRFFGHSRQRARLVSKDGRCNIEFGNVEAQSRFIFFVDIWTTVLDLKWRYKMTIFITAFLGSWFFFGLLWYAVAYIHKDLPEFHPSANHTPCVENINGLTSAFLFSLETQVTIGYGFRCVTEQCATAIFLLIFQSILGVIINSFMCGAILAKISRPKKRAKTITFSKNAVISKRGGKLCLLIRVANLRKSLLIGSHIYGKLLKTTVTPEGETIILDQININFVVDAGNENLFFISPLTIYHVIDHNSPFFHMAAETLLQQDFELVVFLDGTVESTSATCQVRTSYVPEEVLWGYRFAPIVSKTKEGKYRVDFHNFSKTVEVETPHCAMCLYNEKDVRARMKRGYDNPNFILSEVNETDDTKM
Chain of hROMK (hKir1.1) (P48048 whole entry): as the sequence (P48048 whole entry, species assumed) above

Structure (SMILES) | IC50 (hROMK (hKir1.1); [1]) [nM] | IC50 (Kir1.1 (ROMK1); [2]) [nM] | IC50 (Kir1.1 (ROMK1); [3]) [nM] | IC50 (hROMK (hKir1.1); Thallium Flux IC50, HEK293 cells stably expressing hROMK (hKir1.1)) [nM]
Cc1cc(-n2cnnn2)ncc1C(O)CN1CCN2C[C@@H](c3ccc(F)c(C#N)c3C)OC[C@@H]2C1 (single isomer, unassigned) [Example 19] | 440 | 260 |  | 
Cc1c([C@@H]2CN3CCN(CC(O)c4ccc5c(c4)C[C@H](C)OC5=O)C[C@H]3CO2)ccc2c1COC2=O (single isomer, unassigned) [Example 45] | 470 |  | 120 | 
Cc1c(CCN2CCN3C[C@H](c4ccc5c(c4Cl)COC5=O)OC[C@@H]3C2)ccc2c1COC2=O [Example 89] | 200 |  | 100 | 
Cc1cc2c(cc1C(O)CN1CCN3C[C@@H](c4ccc(F)c(C#N)c4C)OC[C@@H]3C1)COC2=O (single isomer, unassigned) [Example 24, trifluoroacetate] |  | 240 |  | 450
COc1c(CCN2CCN3C[C@@H](c4ccc5c(c4C)COC5=O)OC[C@@H]3C2)ccc(C#N)c1F [Example 95] | 120 |  | 110 | 
Cc1c([C@@H]2CN3CCN(C[C@H](O)c4ccc5c(c4)COC5=O)C[C@@H]3CN2)ccc(F)c1C#N [Example 107] | 160 |  | 200 | 
Cc1c([C@@H]2CN3CCN(CCc4ccc5c(c4C)COC5=O)C[C@H]3CO2)ccc(F)c1C#N [Example 80] | 60 |  | 50 | 
Cc1c([C@@H]2CN3CCN(CCc4ccc5c(c4)C[C@@H](C)OC5=O)C[C@H]3CO2)ccc2c1COC2=O [Example 87] | 110 |  | 50 | 
Cc1c([C@H]2CN3CCN(CC(C)c4ccc5c(c4)COC5=O)C[C@H]3CO2)ccc2c1COC2=O (some centres unmarked) [Example 66] | 170 |  | 140 | 
Cc1c([C@H]2CN3CCN(CC(O)c4ccc(-n5cnnn5)nc4)C[C@H]3CO2)ccc(F)c1C#N (single isomer, unassigned) [Example 18] | 290 |  | 100 | 
Cc1c([C@H]2CN3CCN(CCc4ccc5c(c4)COC5=O)C[C@@H]3CN2)ccc(F)c1C#N [Example 106] | 130 |  | 50 | 
Cc1cc2c(cc1C(O)CN1CCN3C[C@@H](c4ccc5c(c4C)COC5=O)OC[C@@H]3C1)COC2=O (single isomer, unassigned) [Example 42] | 220 |  | 80 | 
Cc1c([C@H]2CN3CCN(CCc4ccc(-n5cnnn5)nc4)C[C@H]3CO2)ccc(F)c1C#N [Example 93] | 80 |  | 80 | 
Cc1c([C@@H]2CN3CCN(CCc4ccc5c(c4)C[C@H](C)OC5=O)C[C@H]3CO2)ccc(F)c1C#N [Example 88] | 190 |  | 50 | 
COc1cc(C(O)CN2CCN3C[C@@H](c4ccc5c(c4C)COC5=O)OC[C@@H]3C2)ccc1C#N (single isomer, unassigned) [Example 47] | 250 |  | 190 | 
Cc1c([C@H]2CN3CCN(CCc4ccc5c(c4)COC5=O)C[C@H]3CO2)ccc2c1COC2=O [Example 65] | 170 |  | 110 | 

Reference: patent publication US9604998B2, “Inhibitors of the renal outer medullary potassium channel” (MERCK SHARP & DOHME CORP., priority 2013, dated 2017)
